{"source": "paper PMC3150631", "about": "(Nature, 2011)", "biological_target": "T1, UCP2 (mouse mitochondrial uncoupling protein 2) (Mus musculus, UniProt P70406)", "T1 sequence (P70406 14-309)": "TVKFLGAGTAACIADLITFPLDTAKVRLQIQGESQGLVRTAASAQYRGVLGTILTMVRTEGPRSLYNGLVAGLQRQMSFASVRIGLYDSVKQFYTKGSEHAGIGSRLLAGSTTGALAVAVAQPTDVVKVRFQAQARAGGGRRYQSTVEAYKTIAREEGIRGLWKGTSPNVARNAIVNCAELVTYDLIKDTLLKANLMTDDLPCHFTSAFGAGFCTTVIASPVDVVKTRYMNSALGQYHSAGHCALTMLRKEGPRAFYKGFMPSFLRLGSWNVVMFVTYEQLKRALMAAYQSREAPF", "assay": "proton translocation in liposomes", "assay_type": "biochemical", "details": "fatty-acid activated; inhibitor", "data": [{"molecule": "Nc1nc2c(ncn2[C@@H]2O[C@H](COP(=O)(O)OP(=O)(O)O)[C@@H](O)[C@H]2O)c(=O)[nH]1", "note": "[GDP]", "values": [{"measurement": "proton translocation in liposomes", "result": "it showed fatty-acid activated and GDP-inhibited proton translocation activity"}]}]}
